According to patent publication US6916797B2, “α-arylethylpiperazine derivatives as neurokinin antagonists” (UCB, S.A., priority 2000, dated 2005):

What was measured:
[1] = system: verapamil binding site of the L-type calcium channel; assay: Inhibition of [3H]D888 binding to the verapamil binding site of the L-type calcium channel (rat cerebral cortex membranes); settings: 10 μmol/l of test substance
Procedure: 200-250 g male Sprague-Dawley rats are sacrificed by decapitation. Cerebral cortices are quickly dissected on ice and homogenized in a 20 mmol/l Tris-HCl (pH 7.4) buffer containing 250 mmol/l sucrose (buffer A). The homogenate is centrifuged at 30,000 g for 15 min at 4° C. The resulting crude membrane pellet is resuspended in a 50 mmol/l Tris-HCl (pH 7.4) buffer and incubated 15 min at 37° C. before being centrifuged at 30,000×g for 15 min at 4° C. After two more washes under the same conditions, the final pellet is resuspended in buffer A at a protein concentration ranging from 15 to 25 mg/ml and stored in liquid nitrogen.
Binding experiments are essentially performed according to Reynolds J. et al., J. Pharmacol. Exp. Ther. (1986), 237, 731-738. (1986) with slight modifications.
Membranes (120-175 μg/assay) are incubated at 25° C. for 60 min in 0.5 ml of a 50 mmol/l Tris-HCl buffer (pH 7.4) containing 2 mmol/l MgCl2, 0.2 to 0.4×10-9 mol/l of [^3H]D888 (85 Ci/mmol; Amersham, Belgium) and 10 μmol/l of the test substance. The non specific binding (NSB) is defined as the residual binding observed in the presence 10 μM verapamil. Membrane-bound and -free radioligands are separated by rapid filtration through glass fiber filters (equivalent to Whatman GF/C or GF/B; VEL, Belgium) presoaked in 0.1% polyethyleneimine to reduce non specific binding. Samples and filters are rinsed by at least 6 ml of 50 mmol/l Tris-HCl (pH 7.4) buffer. […] The radioactivity trapped onto the filters is counted by liquid scintillation in a β-counter.
The inhibition of the radioligand specific binding is calculated as follows: [formula] • where BI and Bo represent the binding observed in the presence and absence of the test substance respectively; and • BNS is the non specific binding.
Data analysis is performed by a computerized non linear curve fitting method using a set of equations describing several binding models assuming competitive interactions between ligands (Weiland G. A. and P. B. Molinoff Life Science (1981), 29, 313-330; Molinoff P. et al. (1981) Life Sci., 29, 427-443).

[2] = system: isolated rat aorta contracted by 100 mM KCl; assay: Effect of compound on isolated rat aorta contracted by 100 mM KCl; settings: 10^−5 M; contraction by 100 mM KCl
Procedure: Rat thoracic aorta depolarized by 100 mM KCl develops a contraction induced by an influx of Ca^2+ into the smooth muscle cell. An inhibition of this contraction could predict a Ca^2+ antagonist activity.
The method was adapted from Polster P. et al., J. Pharmacol. Exp. Ther. (1990), 255, 593: rings of thoracic aorta were prepared from male Wistar rats (250-400 g) and mounted under an optimal resting tension of 2 g in 10 ml organ baths containing modified Krebs' solution (NaCl 112 mM, NaHCO3 25 mM, KCl 5 mM, MgSO4 1.2 mM, CaCl2 2.5 mM, KH2PO4 1 mM and glucose 11.5 mM, pH 7.4). The bathing solution was maintained at a temperature of 37° C. and gassed with 95% O2 and 5% CO2. Isometric contractions were measured with a force transducer connected to an amplifier. A computer system was used to control data acquisition and fluid circulation through electrovalves. Drugs were manually injected into the bath.
Each ring was allowed to equilibrate for 60 min in the modified Krebs' solution. […] After obtaining two reproducible control contractions, a 3rd contraction was induced and the test compound was added to the bathing medium for 2 hours. Only preparation in which the contractions were matched were used. Each tissue received only one concentration of the test compound. Appropriate control experiments were conducted in order to test the effect of the solvant.
To normalize data, the change in tension due to the drug was compared to the change of tension due to the solvant and expressed as percentage of the induced relaxation of the initial contraction. Raw data were processed by a computer system and the pD′2 value was calculated following the method of Van Rossum J. M. et al., Arch. Int. Pharmacodyn. Ther. (1963), 143, 299.

NK1 receptors = NK1 receptors (Homo sapiens, UniProt P25103); assay: Binding of [4,5-3H-Leu10] substance P to human recombinant NK1 receptors expressed in CHO cell membranes; set-up: host or cells: CHO cells; settings: pIC50 = -log IC50, concentration inhibiting by 50% the specific binding of [4,5-3H] substance P; tested as the free base/salt given in c1
Procedure: The following test was designed to assess the affinity of test substances for human recombinant NK1 receptors expressed in Chinese Hamster Ovarian (CHO) cells.
CHO cells expressing the human recombinant NK1 receptor are used. The cells were obtained from Euroscreen (Brussels, Belgium).
Cells expressing the human NK1 receptor are routinely cultured in 175 cm2 flasks containing 75 ml of medium F12 (Ham) enriched with 2 mmol/l L-glutamine, 100 IU/ml penicilline, 100 μg/ml streptomycine, 1% sodium pyruvate, 2.5 μg/ml fungizone amphotericin B, 400 μg/ml geneticin and supplemented with 10% foetal calf serum. […] When subcultured, the cells are seeded at a concentration of 50,000 cells/cm2.
Confluent cells are gently scraped and resuspended in 25 ml of phosphate buffered saline without calcium and magnesium. The cellular suspension is centrifuged at 1500×g for 3 min (4° C.). The cell pellet is homogenized in a 15 mmol/l Tris-HCl (pH 7.5) buffer, 2 mmol/l MgCl2, 0.3 mmol/l EDTA, 1 mmol/l EGTA. The crude membrane fraction is collected by two consecutive centrifugation steps at 40,000×g for 25 min (4° C.). The final pellet is resuspended in 20 mmol/l Tris-HCl (pH 7.4), 250 mmol/l sucrose buffer at a protein concentration ranging from 2 to 6 mg/ml and stored in liquid nitrogen. • 1.2.2. Test Design
The inhibition constant (Ki) is determined using increasing concentrations of the test substance. The concentration range usually encompasses 6 log units with variable steps (0.3 to 1 log). Assays are performed in mono- or duplicate.
Membranes are incubated at 25° C. for 60 min in 0.5 ml of a 50 mmol/l Tris-HCl buffer (pH 7.4) containing 2 mmol/l MgCl2, 100 μg/ml bacitracine, 0.1 to 0.4×10^−9 mol/l of [4,5^3H-Leu^10] substance P (specific activity>100 Ci/mmol) and increasing concentrations of the test substance. […] Membrane-bound and free radioligands are separated by rapid filtration through glass fiber filters (equivalent to Whatman GF/C or GF/B; VEL, Belgium) presoaked in 0.1% polyethyleneimine to reduce non specific binding. Samples and filters are rinsed by at least 6 ml of 50 mmol/l Tris-HCl (pH 7.4) buffer.
Initial values for the different variables may be provided by the experimenter.

Sequence of NK1 receptors (P25103 whole entry): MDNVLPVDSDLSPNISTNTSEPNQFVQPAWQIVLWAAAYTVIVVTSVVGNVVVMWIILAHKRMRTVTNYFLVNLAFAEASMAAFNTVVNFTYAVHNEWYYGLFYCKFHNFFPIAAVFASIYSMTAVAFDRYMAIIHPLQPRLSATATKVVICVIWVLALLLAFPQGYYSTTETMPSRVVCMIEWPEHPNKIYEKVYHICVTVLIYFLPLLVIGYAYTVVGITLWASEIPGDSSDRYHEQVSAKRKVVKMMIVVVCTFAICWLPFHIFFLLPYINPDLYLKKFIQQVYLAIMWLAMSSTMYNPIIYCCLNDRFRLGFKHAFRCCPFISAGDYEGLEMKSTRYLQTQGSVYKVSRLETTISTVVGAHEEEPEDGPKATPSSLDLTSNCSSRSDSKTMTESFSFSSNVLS

| Structure (SMILES) | % inhibition of [3H]D888 binding to the verapamil binding site of the L-type calcium channel [1] | Result: effect of compound on isolated rat aorta contracted by 100 mM KCl [2] | IC50 (NK1 receptors) |
| --- | --- | --- | --- |
| O=C(O)CN1CCN(C(COCc2cc(C(F)(F)F)cc(C(F)(F)F)c2)c2ccccc2)CC1 (racemic) [Compound 229, {4-[2-(3,5-Bis-trifluoromethyl-benzyloxy)-1-phenyl-ethyl]-piperazin-1-yl}-acetic acid] | 0 (0: inhibition < 20%) | inactive à 10^−5 M | 0.0794 µM |
| O=C(O)CCCN1CCN(C(COCc2cc(C(F)(F)F)cc(C(F)(F)F)c2)c2ccccc2)CC1 (racemic) [Compound 232] | + (+: inhibition comprised between 20 and 50%) | inactive à 10^−5 M | 0.0501 µM |
| O=C(O)CCCCN1CCN(C(COCc2cc(C(F)(F)F)cc(C(F)(F)F)c2)c2ccccc2)CC1 (racemic) [Compound 233, 5-{4-[2-(3,5-Bis-trifluoromethyl-benzyloxy)-1-phenyl-ethyl]-piperazin-1-yl}-pentanoic acid] | 0 (0: inhibition < 20%) | inactive à 10^−5 M | 0.0316 µM |
| O=C(O)COCCN1CCN(C(COCc2cc(C(F)(F)F)cc(C(F)(F)F)c2)c2ccccc2)CC1 (racemic) [Compound 235, (2-{4-[2-(3,5-Bis-trifluoromethyl-benzyloxy)-1-phenyl-ethyl]-piperazin-1-yl}-ethoxy)-acetic acid] | 0 (0: inhibition < 20%) | inactive à 10^−5 M | 0.0631 µM |
| O=C(O)CN1CCN([C@H](COCc2cc(C(F)(F)F)cc(C(F)(F)F)c2)c2ccccc2)CC1 [Compound 230] | 0 (0: inhibition < 20%) | inactive à 10^−5 M | 0.0501 µM |
| O=C(O)COCCN1CCN([C@H](COCc2cc(C(F)(F)F)cc(C(F)(F)F)c2)c2ccccc2)CC1 [Compound 236] | 0 (0: inhibition < 20%) | inactive à 10^−5 M | 0.0794 µM |
| O=C(O)c1ccc(CN2CCN([C@H](COCc3cc(C(F)(F)F)cc(C(F)(F)F)c3)c3ccccc3)CC2)cc1 [Compound 243] | 0 (0: inhibition < 20%) | inactive à 10^−5 M | 0.0631 µM |
| CC(C)COC(=O)COCCN1CCN(C(COCc2cc(C(F)(F)F)cc(C(F)(F)F)c2)c2ccccc2)CC1 (stereo not drawn) [Compound 287, (2-{4-[2-(3,5-Bis-trifluoromethyl-benzyloxy)-1-phenyl-ethyl]-piperazin-1-yl}-ethoxy)-acetic acid isobutyl ester] | + (+: inhibition comprised between 20 and 50%) | inactive à 10^−5 M | 0.0316 µM |
| O=c1[nH]nc(CN2CCN(C(COCc3cc(C(F)(F)F)cc(C(F)(F)F)c3)c3ccccc3)CC2)[nH]1 (stereo not drawn) [Compound 295, 5-{4-[2-(3,5-Bis-trifluoromethyl-benzyloxy)-1-phenyl-ethyl]-piperazin-1-ylmethyl}-2,4-dihydro-[1,2,4]triazol-3-one] | − + (+: inhibition comprised between 20 and 50%) | inactive à 10^−5 M | 0.0631 µM |
| FC(F)(F)c1cc(COCC(c2ccccc2)N2CCN(CCCCc3nnn[nH]3)CC2)cc(C(F)(F)F)c1 (stereo not drawn) [Compound 297] | + (+: inhibition comprised between 20 and 50%) | inactive à 10^−5 M | 0.02 µM |
| FC(F)(F)c1cc(COC[C@H](c2ccccc2)N2CCN(CCCCc3nnn[nH]3)CC2)cc(C(F)(F)F)c1 [Compound 298, (S)-1-[2-(3,5-Bis-trifluoromethyl-benzyloxy)-1-phenyl-ethyl]-4-[4-(1H-tetrazol-5-yl)-butyl]-piperazine] | + (+: inhibition comprised between 20 and 50%) | inactive à 10^−5 M | 0.0158 µM |
| FC(F)(F)c1cc(COC[C@@H](c2ccccc2)N2CCN(CCCCc3nnn[nH]3)CC2)cc(C(F)(F)F)c1 [Compound 299] | + (+: inhibition comprised between 20 and 50%) | inactive à 10^−5 M | 0.0158 µM |
| FC(F)(F)c1cc(COCC(c2ccccc2)N2CCN(CCOCc3nnn[nH]3)CC2)cc(C(F)(F)F)c1 (stereo not drawn) [Compound 300] | + (+: inhibition comprised between 20 and 50%) | inactive à 10^−5 M | 0.0316 µM |
| Fc1ccc(C(COCc2cc(C(F)(F)F)cc(C(F)(F)F)c2)N2CCN(CCCCc3nnn[nH]3)CC2)cc1 (stereo not drawn) [Compound 301] | + (+: inhibition comprised between 20 and 50%) | inactive à 10^−5 M | 0.0158 µM |
| CC(OCC(c1ccccc1)N1CCN(CCCCc2nnn[nH]2)CC1)c1cc(C(F)(F)F)cc(C(F)(F)F)c1 (stereo not drawn) [Compound 303] | + (+: inhibition comprised between 20 and 50%) | inactive à 10^−5 M | 0.00501 µM |
